In the supplement of paper PMC10307832:

Columns and labels:
Assay in all cases: relative viability (nuclei count vs DMSO), 5 days (fraction); higher = more cells survive
Neratinib + Phenformin = compound: CCOc1cc2ncc(C#N)c(Nc3ccc(OCc4ccccn4)c(Cl)c3)c2cc1NC(=O)/C=C/CN(C)C [Neratinib] + N=C(N)NC(=N)NCCc1ccccc1 [Phenformin] (partner 250 µM)
Method in brief: (§1)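 Lung cancer cell lines were pin-tool dosed in 1536-well plates on the day after seeding, with either a lone drug or a fixed anchor-drug dose plus five library-drug doses (not always all listed) in √10 steps. Nuclei were counted on 4× images after 5 days. Relative viability is the ratio of treated-well to vehicle-well nuclei counts, with each value a median of duplicate plates.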

Neratinib + Pictilisib = compound: CCOc1cc2ncc(C#N)c(Nc3ccc(OCc4ccccn4)c(Cl)c3)c2cc1NC(=O)/C=C/CN(C)C [Neratinib] + CS(=O)(=O)N1CCN(Cc2cc3nc(-c4cccc5[nH]ncc45)nc(N4CCOCC4)c3s2)CC1 [Pictilisib] (partner 1 µM)
Method in brief: as §1

Neratinib + AZD7762 = compound: CCOc1cc2ncc(C#N)c(Nc3ccc(OCc4ccccn4)c(Cl)c3)c2cc1NC(=O)/C=C/CN(C)C [Neratinib] + NC(=O)Nc1cc(-c2cccc(F)c2)sc1C(=O)N[C@H]1CCCNC1 [AZD7762] (partner 0.2 µM)
Method in brief: as §1

Neratinib + Alpelisib = compound: CCOc1cc2ncc(C#N)c(Nc3ccc(OCc4ccccn4)c(Cl)c3)c2cc1NC(=O)/C=C/CN(C)C [Neratinib] + Cc1nc(NC(=O)N2CCC[C@H]2C(N)=O)sc1-c1ccnc(C(C)(C)C(F)(F)F)c1 [Alpelisib] (partner 2 µM)
Method in brief: as §1

Row | Cell Line | relative viability (Neratinib + Phenformin; first compound 0.01 µM) | relative viability (Neratinib + Phenformin; first compound 0.03162 µM) | relative viability (Neratinib + Phenformin; first compound 0.1 µM) | relative viability (Neratinib + Phenformin; first compound 0.3162 µM) | relative viability (Neratinib + Phenformin; first compound 1 µM) | relative viability (Neratinib + Pictilisib; first compound 0.01 µM) | relative viability (Neratinib + Pictilisib; first compound 0.03162 µM) | relative viability (Neratinib + Pictilisib; first compound 0.1 µM) | relative viability (Neratinib + Pictilisib; first compound 0.3162 µM) | relative viability (Neratinib + Pictilisib; first compound 1 µM) | relative viability (Neratinib + AZD7762; first compound 0.03162 µM) | relative viability (Neratinib + AZD7762; first compound 0.1 µM) | relative viability (Neratinib + AZD7762; first compound 0.3162 µM) | relative viability (Neratinib + AZD7762; first compound 1 µM) | relative viability (Neratinib + Alpelisib; first compound 0.01 µM) | relative viability (Neratinib + Alpelisib; first compound 0.03162 µM) | relative viability (Neratinib + Alpelisib; first compound 0.1 µM) | relative viability (Neratinib + Alpelisib; first compound 1 µM) | relative viability (Neratinib + AZD7762; first compound 0.01 µM) | relative viability (Neratinib + Alpelisib; first compound 0.3162 µM)
1 | HCC-366 | 0.631 | 0.617 | 0.611 | 0.626 | 0.547 | 0.174 | 0.149 | 0.101 | 0.137 | 0.112 | 0.307 | 0.147 | 0.232 | 0.169 | 0.716 | 0.418 | 0.402 | 0.35 |  | 
2 | HCC-827 | 0.42 | 0.411 | 0.403 | 0.23 | 0.151 | 0.872 | 0.88 | 0.73 | 0.623 | 0.219 | 0.236 | 0.132 | 0.129 | 0.132 | 1.05 | 1.11 | 0.967 | 0.182 | 0.217 | 0.583
3 | HOP-62 | 0.716 | 0.702 | 0.621 | 0.585 | 0.617 | 0.677 | 0.826 | 0.691 | 0.669 | 0.52 | 0.525 | 0.559 |  | 0.443 | 0.903 | 1 | 0.847 |  | 0.672 | 0.967
4 | IA-LM |  |  |  |  |  | 0.33 | 0.318 | 0.193 | 0.197 | 0.126 |  |  |  |  | 0.846 | 0.894 | 0.647 | 0.486 |  | 0.782
5 | LC-2-ad |  | 0.578 | 0.557 | 0.421 | 0.45 | 0.525 | 0.485 | 0.0712 | 0.249 | 0.162 | 0.894 |  | 0.551 | 0.327 | 0.923 | 0.95 | 0.734 | 0.312 | 0.832 | 0.783
6 | LCLC-97TM1 | 0.461 | 0.462 | 0.379 | 0.29 | 0.177 | 0.212 | 0.164 | 0.199 | 0.143 | 0.138 | 0.251 | 0.218 | 0.207 | 0.304 | 0.26 | 0.254 | 0.24 | 0.115 | 0.224 | 0.255
7 | LCLC-103H | 0.353 | 0.344 | 0.34 | 0.293 | 0.293 | 0.597 | 0.668 | 0.575 | 0.582 | 0.587 | 0.812 | 0.655 | 0.857 | 0.68 | 1 | 1 | 0.711 | 0.629 | 0.818 | 0.966
8 | NCI-H520 | 0.599 | 0.78 | 0.53 | 0.496 | 0.287 | 0.297 | 0.377 | 0.222 | 0.215 | 0.188 |  |  |  |  | 0.955 | 1.14 | 0.905 | 0.547 |  | 0.819
9 | NCI-H661 | 0.274 | 0.242 | 0.285 | 0.247 | 0.251 | 0.507 | 0.399 | 0.303 | 0.24 | 0.272 |  |  |  |  | 0.66 | 0.959 | 0.443 | 0.236 |  | 0.187
10 | NCI-H1299 |  |  |  |  |  | 0.729 | 0.901 | 0.805 | 0.459 | 0.28 |  |  |  |  | 1 |  |  | 1.04 |  | 1.04
11 | NCI-H1563 | 0.727 | 0.643 | 0.568 | 0.628 | 0.409 | 0.608 | 0.636 | 0.664 | 0.617 | 0.602 |  |  |  |  | 0.815 | 0.984 | 0.877 | 0.875 |  | 0.843
12 | NCI-H1648 |  |  |  |  |  |  |  |  |  |  |  | 0.491 | 0.552 | 0.444 |  |  |  |  | 0.676 | 
13 | NCI-H1650 | 0.464 | 0.422 | 0.311 | 0.302 | 0.271 | 0.565 | 0.682 | 0.513 | 0.531 | 0.517 |  |  |  |  |  |  |  |  |  | 
14 | NCI-H1703 |  |  |  |  |  | 0.23 | 0.224 | 0.244 | 0.201 | 0.212 | 0.135 | 0.164 | 0.111 | 0.118 | 0.36 | 0.354 | 0.279 | 0.165 | 0.148 | 0.205
15 | NCI-H2009 | 0.482 | 0.509 | 0.484 | 0.389 | 0.303 | 0.862 | 0.892 | 0.727 | 0.638 | 0.432 |  |  |  |  | 1.14 | 1.16 | 1.11 | 0.955 |  | 1.17
16 | NCI-H2023 | 0.434 | 0.451 | 0.362 | 0.323 | 0.298 | 0.209 | 0.233 | 0.233 | 0.228 | 0.177 |  |  |  |  | 0.62 | 0.611 | 0.511 | 0.298 |  | 0.445
17 | NCI-H2228 | 0.334 | 0.331 | 0.268 | 0.236 | 0.122 | 0.365 | 0.346 | 0.301 | 0.442 | 0.199 |  |  |  |  | 0.702 | 0.703 | 0.599 | 0.243 |  | 0.497
18 | SK-LU-1 | 0.584 | 0.515 | 0.521 | 0.381 | 0.25 | 0.647 | 0.65 | 0.514 | 0.505 | 0.34 |  |  |  |  | 1.18 | 1.16 | 0.915 | 0.447 |  | 0.587
19 | SK-MES-1 | 0.675 | 0.706 | 0.665 | 0.285 | 0.2 | 0.347 | 0.338 | 0.238 | 0.207 | 0.177 |  |  |  |  | 0.914 | 0.988 | 0.661 | 0.207 |  | 0.384
20 | SW 900 | 0.537 | 0.658 |  | 0.609 | 0.309 |  |  |  |  |  | 0.753 | 0.526 | 0.54 | 0.409 |  |  |  |  | 0.696 | 
21 | SW 1573 | 0.431 | 0.466 | 0.384 | 0.311 | 0.185 | 0.523 | 0.586 | 0.399 | 0.508 | 0.249 |  |  |  |  | 0.94 |  | 0.591 | 0.515 |  | 0.577
22 | UMC-11 | 0.333 | 0.328 | 0.32 | 0.293 | 0.275 | 0.776 | 1.06 | 0.566 | 0.746 | 0.701 |  |  |  |  | 0.721 | 0.988 | 0.96 | 0.802 |  | 0.963
